The supplement of paper PMC10307832

Tests used:
Experiment in all cases: relative viability (nuclei count vs DMSO), 5 days (fraction); higher = more cells survive
[1] = compound: C1CNCCC1C2=CC(=NN2)C3=CC=NC=C3 + O=C(CCCCCCC(=O)Nc1ccccc1)NO [Vorinostat] (partner 1 µM)
Outline: (§1)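 The day after seeding in 1536-well plates, lung cancer cell lines were treated by pin tool with a single drug, or with a fixed anchor-drug dose together with five library-drug doses (not always all listed) in √10 steps. After 5 days, a combined fix-and-stain solution (final 0.05% Triton X-100, 1% formaldehyde, 1 ug/ml Hoechst) was added. Nuclei counted on 4× images gave relative viability as treated counts over vehicle counts, reported as the median of duplicate plates.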

[2] = compound: O[C@H]1CC[C@H](Nc2ncc3nc(Nc4c(F)cc(F)cc4F)n([C@H]4CCOC4)c3n2)CC1 [Tanzisertib] + O=C(c1cc(Cc2n[nH]c(=O)c3ccccc23)ccc1F)N1CCN(C(=O)C2CC2)CC1 [Olaparib] (partner 8 µM)
Outline: as §1

[3] = compound: C1CNCCC1C2=CC(=NN2)C3=CC=NC=C3 + Nc1nc2[nH]cc(CCc3ccc(C(=O)N[C@@H](CCC(=O)O)C(=O)O)cc3)c2c(=O)[nH]1 [Pemetrexed] (partner 0.2 µM)
Outline: as §1

[4] = compound: O[C@H]1CC[C@H](Nc2ncc3nc(Nc4c(F)cc(F)cc4F)n([C@H]4CCOC4)c3n2)CC1 [Tanzisertib] + Cc1cc(Nc2cc(N3CCN(C)CC3)nc(Sc3ccc(NC(=O)C4CC4)cc3)n2)n[nH]1 [Tozasertib] (partner 0.1 µM)
Outline: as §1

Cell Line | relative viability ([1]; first compound 0.08 µM) | relative viability ([1]; first compound 0.8 µM) | relative viability ([1]; first compound 2.53 µM) | relative viability ([1]; first compound 8 µM) | relative viability ([2]; first compound 0.08 µM) | relative viability ([2]; first compound 0.253 µM) | relative viability ([2]; first compound 0.8 µM) | relative viability ([2]; first compound 2.53 µM) | relative viability ([2]; first compound 8 µM) | relative viability ([3]; first compound 0.08 µM) | relative viability ([3]; first compound 0.8 µM) | relative viability ([3]; first compound 2.53 µM) | relative viability ([3]; first compound 8 µM) | relative viability ([4]; first compound 0.08 µM) | relative viability ([4]; first compound 0.253 µM) | relative viability ([4]; first compound 0.8 µM) | relative viability ([4]; first compound 2.53 µM) | relative viability ([4]; first compound 8 µM)
HOP-62 | 0.606 | 0.635 | 0.733 | 0.6 | 0.268 | 0.426 | 0.587 | 0.643 | 0.556 | 0.312 | 0.336 | 0.272 | 0.335 | 0.428 | 0.433 | 0.356 | 0.382 | 0.375
NCI-H2087 | 0.682 | 0.8 | 0.738 | 0.684 | 0.552 | 0.576 | 0.501 | 0.52 | 0.588 | 0.722 | 0.679 | 0.635 | 0.666 | 0.238 | 0.287 | 0.277 | 0.209 | 0.202
NCI-H1793 | 0.647 | – | 0.985 | 0.874 | 0.876 | 0.807 | 0.873 | 0.77 | 0.592 | 0.805 | – | 0.929 | 0.974 | 0.289 | 0.287 | 0.303 | 0.246 | 0.223
PC-3 [JPC-3] | 0.94 | 0.797 | 0.881 | 0.834 | 1.18 | 1.21 | 1.19 | 1.18 | 1.04 | 0.966 | 1.22 | 1.15 | 0.998 | 0.903 | 0.99 | 0.943 | 0.852 | 0.781
H3255 | 0.95 | – | 0.995 | 0.937 | 0.611 | 0.521 | 0.661 | 0.62 | 0.481 | 0.578 | 0.629 | 0.638 | 0.623 | 0.736 | 0.607 | 0.675 | 0.588 | 0.427
EMC-BAC-2 | – | 0.475 | 0.498 | 0.436 | 0.484 | 0.477 | 0.455 | 0.488 | 0.533 | 0.464 | 0.448 | 0.435 | 0.439 | 0.268 | 0.275 | 0.262 | 0.277 | 0.277
SW 900 | 0.521 | – | 0.684 | 0.563 | – | 0.82 | 0.963 | 0.782 | 0.722 | 0.497 | – | 0.5 | 0.454 | 0.686 | 0.528 | 0.603 | 0.501 | 0.544
CAL-12T | 0.693 | 0.932 | 0.964 | 0.981 | 0.731 | 0.767 | 0.567 | 0.641 | 0.844 | 1.22 | 1.32 | 1.21 | 1.09 | 0.361 | 0.409 | 0.307 | 0.264 | 0.266
NCI-H650 | 0.433 | 0.437 | 0.434 | 0.546 | 0.373 | 0.391 | 0.359 | 0.426 | 0.391 | 0.956 | 0.967 | 0.951 | 1.02 | 0.761 | 0.796 | 0.776 | 0.768 | 0.65
SK-MES-1 | 0.979 | 0.978 | 1.22 | 1.07 | 0.699 | 0.709 | 0.742 | 0.653 | 0.624 | 0.985 | 0.9 | 0.989 | 0.94 | 0.971 | 0.889 | 0.991 | 0.951 | 0.992
NCI-H1355 | 0.637 | 0.629 | 0.788 | 0.637 | 0.772 | 0.735 | 0.756 | 0.757 | 0.796 | 1.09 | 1.08 | 1.07 | 1.02 | 0.526 | 0.562 | 0.576 | 0.528 | 0.405
NCI-H838 | 0.763 | 0.744 | 0.744 | 0.688 | 0.823 | 0.756 | 0.741 | 0.725 | 0.788 | 0.24 | 0.259 | 0.248 | 0.284 | 0.317 | 0.283 | 0.301 | 0.249 | 0.237
LK-2 | 0.304 | 0.26 | 0.363 | 0.126 | 0.772 | 0.835 | 0.712 | 0.669 | 0.769 | – | 0.263 | 0.295 | 0.267 | 0.164 | 0.18 | 0.17 | 0.163 | 0.169
NCI-H1650 | 0.46 | 0.597 | 0.804 | 0.489 | 0.807 | 0.778 | 0.882 | 0.671 | 0.662 | 0.374 | 0.422 | 0.331 | 0.381 | 0.392 | 0.433 | 0.399 | 0.359 | 0.294
NCI-H322M | 0.95 | 0.854 | 0.99 | 0.953 | 0.805 | 0.836 | 0.762 | 0.89 | 0.726 | 0.636 | 0.589 | 0.641 | 0.667 | 0.473 | 0.468 | 0.498 | 0.487 | 0.499
NCI-H661 | 0.745 | 0.845 | 0.804 | 0.78 | 0.807 | 0.756 | 0.74 | 0.786 | 0.724 | 0.967 | 0.942 | 0.939 | 0.891 | 0.361 | 0.345 | 0.331 | 0.35 | 0.359
NCI-H2228 | 0.537 | 0.589 | 0.667 | 0.587 | 0.579 | 0.506 | 0.556 | 0.788 | 0.496 | 0.31 | 0.373 | 0.384 | 0.356 | 0.333 | 0.385 | 0.241 | 0.254 | 0.238
NCI-H1395 | 0.668 | 0.597 | 0.842 | 0.792 | 0.462 | 0.445 | 0.455 | 0.42 | 0.45 | 0.782 | 0.803 | 1.03 | 0.861 | 0.869 | 0.773 | 0.783 | 0.687 | 0.712
NCI-H520 | 0.677 | 0.777 | 0.746 | 0.7 | 0.395 | 0.331 | 0.39 | 0.328 | 0.433 | 0.652 | 0.743 | 0.637 | 0.517 | 0.411 | 0.464 | 0.403 | 0.428 | 0.414
